“Also recorded” adds a separate entry of the source. Like-named read-outs stand apart in the source and are kept apart here.
Key:
[1] = type: biochemical
Method: Test 5 is a […] test wherein 0.1 ml aliquots of 10^−4 M methanolic solutions of the tested products are added to test tubes containing a solution formed by 0.2 ml of 2 mM deoxyribose, 0.4 ml of phosphate buffer pH 7.4 100 mM and 0.1 ml of 1 mM Fe^II(NH4)2(SO4)2 in 2 mM HCl. The test tubes are then maintained at 37° C. for one hour. Then in each test tube 0.5 ml of a 2.8% solution in trichloroacetic acid water and 0.5 ml of an aqueous 0.1 M solution of thiobarbituric acid are added, in the order. A reference blank is formed by adding to a test tube containing only the above described aqueous solution of reactants 0.1 ml of methanol. […] A pink coloration is developed the intensity of which is proportional to the quantity of deoxyribose undergone to radical oxidative degradation. The solutions are cooled at room temperature and their absorbances are read at 532 nm against the blank. The inhibition induced by the precursor of B or B1 or C=-Tc-Y—H in the confront of radical production by Fe^II is determined by means of the following formula: (1−As/Ac)×100 wherein As and Ac are respectively the absorbance values of the solution containing the tested compound+the iron salt and that of the solution containing only the iron salt, the compound meets test 5 when the inhibition percentage of radical production as above defined from the precursor of B is higher than or equal to 50%. […]

[2] = system: human endothelial cells of the umbilical vein; assay: Experiment F6: apoptosis (DNA fragmentation) induced in endothelial cells by hydrogen peroxide; type: cell-based; conditions: Endothelial cell, products 100 mmoles/l, hydrogen peroxide 200 mmoles/l, 18 hours, read-out: Apoptosis % (respect to the controls treated only with CIP)
From the text: It has been Evaluated the Activity of Some of the Compounds Object of the Present Invention and of the Corresponding Precursor Drugs in Inhibiting DNA Degradation (Apoptosis) in Endothelial Cells Exposed to the Action of Hydrogen Peroxide (HP)
Hydrogen peroxide is a mild oxidant and is considered as an essential mediating agent in pathologies associated with oxidative stress (B. Halliwell, J. Gutteridge “Free Radicals in Biology and Medicine”, page 416, 1993). Therefore the pharmacological activity of compounds to be used under oxidative stress conditions is evaluated through their capability of neutralizing the cytolesive effects of the hydrogen peroxide (B. Halliwell, J. Gutteridge “Free Radicals in Biology and Medicine”, page 416, 1993).
The method described by Herman et Al. (Herman C., Zeiner M. A., Dimmeler S., Arterioscler. Thromb. Vasc. Biol. 17 (12), 3588-82, 1997).
Human endothelial cells of the umbilical vein are prepared according to a standard method. Fresh umbilical veins, just removed, are filled with a solution of collagenase at 0.1% and incubated at 37° C. for 5 minutes.
Subsequently the veins are perfused with medium M 199 (GIBCO, Grand Island, N.Y.) pH 7.4 containing 20% of human serum. The cells are collected from the perfusate by centrifugation at 800 rpm and harvested in culture flasks T-75, pretreated with human fibronectin. […]

[3] = system: human endothelial cells of the umbilical vein; assay: Test 2 (CIP): apoptosis (DNA fragmentation) induced by cumene hydroperoxide in endothelial cells; type: cell-based; conditions: drug 10^-4 M; CIP 5 mM
Method: Test 2 (CIP): Protection parameter of endothelial cell against the oxidative stress induced by cumene hydroperoxide (CIP).
Human endothelial cells of the umbilical vein are prepared according to an usual standard procedure. Fresh umbilical veins are filled with a 0.1% by weight collagenase solution and incubated at 37° C. for 5 minutes.
The cells are collected from the perfusate by centrifugation and harvested in culture flasks T-75, pretreated with human fibronectin. The cells are then harvested in the same medium, further added with 10 ng/ml of bovine hypothalamic growth factor. When the cells of the primary cell culture (i.e. that directly obtained from ex-vivo) form a single layer of confluent cells (about 8,000,000 cells/flask), the culture is stopped and the layers washed and trypsinized. The cellular suspensions are transferred into the wells of a cell culture plate having 24 wells, half of which is then additioned with the same culture medium containing the drug at a 10^−4M concentration, and harvested in a thermostat at 37° C. at a constant moisture. Only the cells coming from said first sub-cultures are used for the experiments with cumene hydroperoxide (CIP).
Before starting the test, the cellular culture medium is removed and the cellular layers are carefully washed with a physiologic solution at a temperature of 37° C. The wells of the culture plate are then incubated for one hour with CIP at a 5 mM concentration in the culture medium. […] 5 replicates for each sample are carried out.
Human endothelial cells of the umbilical vein are prepared according to a standard method. Fresh umbilical veins are filled with a collagenase solution 0.1% by weight and incubated at 37° C. for 5 minutes.
The cells are collected from the perfusate by centrifugation at 800 rpm and harvested in culture flasks T-75, pretreated with human fibronectin. Cells are then harvested in the same medium, added with bovine hypothalamic growth factor (100 ng/ml). When the cells of the primary cell culture (the cells directly removed from ex-vivo umbilical vein) form a single layer of confluent cells (about 8,000,000 cells/flask), harvesting is stopped and the layers are washed and trypsinized. The cellular suspensions are transferred into wells of a culture plate having 24 wells, half of said wells being added with the same culture medium containing the drug at a 10^−4M concentration, and harvested in a thermostat at 37° C. at a constant moisture (90%), CO2=5%. When the drug is not soluble in the culture medium, it is formerly dissolved in a small amount of dimethylsulphoxide. The maximum amount of dimethylsulphoxide which can be added to the culture medium is 0.5%. Only the cells coming from these first subcultures are used for the tests with cumene hydroperoxide (CIP).
Before starting the test, the cellular culture medium is removed and the cellular layers are carefully washed with a standard physiologic solution buffered with phosphate 0.1 M pH 7.0, at the temperature of 37° C. The content of each well is then incubated for one hour with a CIP suspension in the culture medium at a 5 mM concentration. Evaluation of the cellular damage (apoptosis) is carried out by determining the percent variation of the DNA fragmentation in the cultures containing the drug+CIP with respect to the controls treated with CIP only. […] The fluorescence of each sample was determined on 5 replicates. Statistic evaluation has been made with t Student test (p<0.01).

gastrointestinal mucosa = conditions: male, Wistar, rat, in vivo, 6 h
Method: Gastric lesions induced by administration of the compounds of the invention in the confront of the corresponding drug precursor.
The animals have been sacrificed 6 hours after the administration. The gastrointestinal mucosa has been removed and inspected. The incidence of the gastrointestinal damage has been evaluated as described in experiment F1.

erythrocytes = assay: Test 4A: inhibition of erythrocyte haemolysis induced by cumene hydroperoxide; conditions: 2 mM, preincubated 30 minutes; cumene hydroperoxide 270 μM; at Tmax
[4] = system: carrageenan rat paw edema; assay: Carrageenan rat paw edema; type: in vivo; conditions: for Antiinflammatory activity % paw edema inhibition: rat, intraperitoneally prior to carrageenan, 3 h
Method: (§1) Antiinflammatory and analgesic activity have been measured according to carrageenan rat paw edema and acetic acid mouse writhing methods.
Experiments were conducted as described by Al-Swayeh et al., Brit. J. Pharmacol. 129, 343-350 2000). Hind paw volume was determined by plethysmography before and after 3 h after interplantar carrageenan injection (100 microliter, 2% w/v). The compounds were given intraperitoneally […] prior to carrageenan injection. At the end of the experiment animals were killed by cervical dislocation and exsanguination. The Results shown in Table IX are expressed as % of paw edema inhibition, i.e. the paw volume of the controls (vehicle) subtracted of the paw volume of the treated and the obtained difference divided by the paw volume of the controls.

liver = assay: Example F10: liver safety (AST, ALT, glutathione, bilirubin); type: in vivo, rat; conditions: rats, 6 hours; for AST %: i.p. (NO-paracetamol 1.4 g/Kg, paracetamol 1.16 g/Kg); for AST % / ALT % / Bilirubin % / Glutathione %: % of vehicle group; for ALT % / Bilirubin % / hepatic damage (in words) / Glutathione %: i.p.; for Glutathione %: liver glutathione
Method: After 6 hours the animals were killed by cervical dislocation, trunk blood collected and plasma analysed for aspartate aminotransferase (AST) and alanine aminotransferase (ALT) activity, liver glutathione and bilirubin concentration.

[5] = system: acetic acid mouse writhing; assay: Acetic acid mouse writhing; type: in vivo
Method: as §1
Experiments were conducted as described by Moore et al. (Br. J. Pharmacol. 102, 198-202 1990). The compounds were given orally 15 minutes prior to intraperitoneal acetic acid (2% w/v in saline pH 2.7, 10 ml/Kg). Mice were transferred immediately to individual observation cages and the number of abdominal constrictions monitored over the following 30 minutes. At the end of the observation period the animals were killed by cervical dislocation and exsanguination. Results are expressed as the number of abdominal constrictions (writhings) per 30 minutes test period, expressed as percentage to those observed in the control group, and are reported in Table IX.

Structure (SMILES) | inhibition of apoptosis induced by CIP (in words, p<0.01) [3] | Antiinflammatory activity % paw edema inhibition [4] | AST % (liver) | ALT % (liver) | Bilirubin % (liver) | Glutathione % (liver) | further results
OCCCCO [1,4-Butandiol] |  |  |  |  |  |  | % Radical inhibition from Fe^II [1]: 0%
NCCCC(O)(P(=O)(O)O)P(=O)(O)O [Alendronate, sodic alendronate] | do not significantly inhibit apoptosis |  |  |  |  |  | activity at 100000 µM [2]: 18%; Gastropathy % incidence (gastrointestinal mucosa): 100%
OCCOCCO [Diethylenglycol] |  |  |  |  |  |  | % Radical inhibition from Fe^II ([1]; 10^-4 M methanolic solution, 37° C. one hour, absorbance 532 nm): 0%; % Haemolysis inhibition (erythrocytes): 33.4%
CC(=O)Nc1ccc(OC(=O)CCCO[N+](=O)[O-])cc1 [Example 1, 4-nitroxybutyric acid 4′-acetylamino phenyl ester] |  | 69% | 160% | 57% | 136% | 49% | antiinflammatory activity compared with paracetamol (in words) ([4]; carrageenan paw edema): much more active in both tests than paracetamol; hepatic damage (in words) (liver; listed as NO-paracetamol): much lower increases of AST and ALT; also recorded: the bilirubin concentration is lower than that in the control groups; also recorded: able to spare the liver; analgesic activity compared with paracetamol (in words) ([5]; acetic acid writhing): much more active in both tests than paracetamol
CC(=O)Nc1ccc(O)cc1 [Paracetamol, paracetamol] | do not significantly inhibit apoptosis; also recorded: not significantly different with respect to that of the controls | 34% | 330% | 171% | 200% | 52% | hepatic damage (in words) (liver): causes hepatic damage; Analgesic activity % writhing inhibition ([5]; mice, orally 15 minutes prior to intraperitoneal acetic acid, 30 minutes): 40%

Source: patent US7759392B2, “Pharmaceutical compounds” (Nicox S.A., priority 1999, dated 2010)
